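48-hour exposure; five concentrations; linearly interpolated endpoints. GI50 marks 50% less growth. TGI marks complete inhibition of growth.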
How the values were obtained:
Test in all cases: NCI anticancer screen, dose series, 48 h
A549 NSCLC = system: A549 NSCLC
EKVX NSCLC = system: EKVX NSCLC
HOP-62 NSCLC = system: HOP-62 NSCLC
LOX IMVI melanoma = system: LOX IMVI melanoma
M14 melanoma = system: M14 melanoma
SK-MEL-5 melanoma = system: SK-MEL-5 melanoma
SK-OV-3 ovarian = system: SK-OV-3 ovarian
SN12C renal = system: SN12C renal
UACC-257 melanoma = system: UACC-257 melanoma
T-47D breast = system: T-47D breast

Structure (SMILES) | TGI (A549 NSCLC) | TGI (EKVX NSCLC) | TGI (HOP-62 NSCLC) | TGI (LOX IMVI melanoma) | TGI (M14 melanoma) | TGI (SK-MEL-5 melanoma) | TGI (SK-OV-3 ovarian) | TGI (SN12C renal) | TGI (UACC-257 melanoma) | GI50 (A549 NSCLC) | GI50 (EKVX NSCLC) | GI50 (HOP-62 NSCLC) | GI50 (M14 melanoma) | GI50 (SK-MEL-5 melanoma) | GI50 (SK-OV-3 ovarian) | GI50 (SN12C renal) | GI50 (T-47D breast) | TGI (T-47D breast) | GI50 (UACC-257 melanoma) | GI50 (LOX IMVI melanoma)
COc1ccc(/C=C2\C(=O)N(NC(C)=O)c3ccccc32)cc1 | > 100 µM | > 100 µM | > 100 µM | > 100 µM | > 100 µM | > 100 µM | > 100 µM | > 100 µM | > 100 µM | – | – | – | – | – | – | – | – | – | – | –
COc1ccc2c(C(=O)O)cc3ccccc3c2c1OC | > 100 µM | 40.8 µM | > 100 µM | 35 µM | 30.7 µM | – | > 100 µM | 53.1 µM | 35.9 µM | – | – | – | – | – | – | – | – | – | – | –
O=[N+]([O-])c1ccc(-c2ccc(C3=Nn4c(CNc5ccccc5Cl)nnc4SC3)o2)cc1 | > 100 µM | – | > 100 µM | > 100 µM | > 100 µM | – | > 100 µM | > 100 µM | > 100 µM | – | – | – | – | – | – | – | – | – | – | –
O=C(COc1ccc(/C=C2\Oc3ccccc3C2=O)cc1)Nc1nc2ccccc2s1 | > 72.7 µM | > 100 µM | > 100 µM | – | > 100 µM | > 100 µM | > 100 µM | > 100 µM | 45.2 µM | 4.96 µM | 26.5 µM | > 69.4 µM | 38.4 µM | 29.7 µM | 61.7 µM | 10.5 µM | 41.4 µM | > 100 µM | 8.24 µM | –
CC(C)Cc1ccc(C(C)/C=C2\CCC(CN(C)C)C2=O)cc1 (stereo not drawn) | 69.5 µM | 40.2 µM | 25 µM | 15.6 µM | 28.5 µM | 19.4 µM | 36.5 µM | 20.5 µM | 30 µM | – | – | – | – | – | – | – | – | – | – | –
O=C(NCCc1ccccc1)C1C(=O)C(=O)N(CCc2ccccc2)C1=O (stereo not drawn) | > 100 µM | > 100 µM | – | > 100 µM | > 100 µM | – | > 100 µM | > 100 µM | > 100 µM | – | – | – | – | – | – | – | – | – | – | –
c1ccc(C(c2ccccc2)c2ccccn2)cc1 | > 100 µM | > 100 µM | > 100 µM | > 100 µM | > 100 µM | > 100 µM | > 100 µM | > 100 µM | > 100 µM | – | – | – | – | – | – | – | – | – | – | –
COc1cc(/C=C/c2cc(/C=C/c3ccc(O)c(OC)c3)n(C(=O)c3ccccc3Br)n2)ccc1O | 45.3 µM | > 100 µM | 16.3 µM | – | > 100 µM | 13.3 µM | 5.31 µM | > 100 µM | 40.1 µM | 3.05 µM | 4.72 µM | 3.41 µM | 3.07 µM | 2.56 µM | 2.24 µM | 2.22 µM | 2.93 µM | 13.2 µM | 3.36 µM | –
CCOC(=O)C1=C(NC)OCC1=O | > 100 µM | > 100 µM | > 100 µM | > 100 µM | > 100 µM | > 100 µM | > 100 µM | > 100 µM | > 100 µM | – | – | – | – | – | – | – | – | – | – | –
COc1cc(/C=C2\NC(=O)C(Cc3cc(OC)c(OC)c(C)c3OC)N(C(C)=O)C2=O)c(OC)c(C)c1OC (stereo not drawn) | > 100 µM | > 100 µM | > 100 µM | > 100 µM | > 100 µM | > 100 µM | > 100 µM | > 100 µM | > 100 µM | – | – | – | – | – | – | – | – | – | – | –
O=NN(CCCl)C(=O)NC1CCC(CC(=O)O)CC1 (stereo not drawn) | > 100 µM | > 100 µM | > 100 µM | > 100 µM | > 100 µM | > 100 µM | > 100 µM | > 100 µM | > 100 µM | – | – | – | – | – | – | – | – | – | – | –
COc1ccc(-c2nc3ccc(Cc4ccc5nc(-c6ccc(OC)cc6)[nH]c5c4)cc3[nH]2)cc1 | 0.237 µM | – | 2.07 µM | 0.217 µM | 0.111 µM | 1.27 µM | 1.89 µM | 2.29 µM | 3.31 µM | 0.0438 µM | – | 0.0291 µM | < 0.01 µM | 0.0193 µM | 0.0314 µM | 0.165 µM | – | – | 1.5 µM | 0.0543 µM
O=C1C2C3C=CC(C2C(=O)N1CO)C1C2C(=O)N(CO)C(=O)C2C31 (stereo not drawn) | > 88.4 µM | > 100 µM | > 100 µM | > 61.9 µM | > 100 µM | > 100 µM | > 100 µM | > 100 µM | > 100 µM | – | – | – | – | – | – | – | – | – | – | –
CC(=O)[CH-]C(=O)c1ccccc1.[C-]#[O+].[C-]#[O+].[Ir] | > 100 µM | > 100 µM | – | > 100 µM | – | > 100 µM | > 100 µM | > 100 µM | > 100 µM | > 100 µM | > 100 µM | – | – | > 100 µM | > 100 µM | > 100 µM | – | – | > 100 µM | > 100 µM
O=C1N[C@@H]2CCCC[C@@H]2C12CCCCC2 | > 100 µM | > 100 µM | > 100 µM | > 100 µM | > 100 µM | – | > 100 µM | > 100 µM | > 100 µM | – | – | – | – | – | – | – | – | – | – | –
COCCOC1=C(Cl)C(=O)c2ccccc2C1=O | 21.8 µM | 15.8 µM | 14.8 µM | 3.31 µM | – | 3.51 µM | 16.8 µM | 16.5 µM | 4.36 µM | 4.33 µM | 3.51 µM | 3.92 µM | – | 1.82 µM | 4.55 µM | 3.91 µM | – | – | 2 µM | 1.75 µM

Structure (SMILES) | TGI (A549 NSCLC) | TGI (EKVX NSCLC) | TGI (HOP-62 NSCLC) | TGI (LOX IMVI melanoma) | TGI (M14 melanoma) | TGI (SK-MEL-5 melanoma) | TGI (SK-OV-3 ovarian) | TGI (SN12C renal) | TGI (UACC-257 melanoma) | GI50 (A549 NSCLC) | GI50 (EKVX NSCLC) | GI50 (HOP-62 NSCLC) | GI50 (M14 melanoma) | GI50 (SK-MEL-5 melanoma) | GI50 (SK-OV-3 ovarian) | GI50 (SN12C renal) | GI50 (T-47D breast) | TGI (T-47D breast) | GI50 (UACC-257 melanoma) | GI50 (LOX IMVI melanoma)
CC(=O)Nc1ccc(C2CC(c3ccc([N+](=O)[O-])cc3)=Nc3ccccc3S2=O)cc1 (stereo not drawn) | > 100 µM | 97.5 µM | 49.8 µM | 31.8 µM | > 100 µM | 48.4 µM | 70.5 µM | 72.2 µM | 95.3 µM | – | – | – | – | – | – | – | – | – | – | –
O=C1NC(=O)C2C(=O)NC(=O)C1C2Cc1ccco1 (stereo not drawn) | > 100 µM | > 100 µM | – | > 100 µM | > 100 µM | > 100 µM | > 100 µM | > 100 µM | > 100 µM | – | – | – | – | – | – | – | – | – | – | –
CC1NOC(=O)C1N=Nc1ccc(Cl)cc1Cl (stereo not drawn) | 65.9 µM | 73.4 µM | > 100 µM | 66.1 µM | 47.4 µM | 73.2 µM | 77.2 µM | 49.1 µM | 67.2 µM | – | – | – | – | – | – | – | – | – | – | –
CCOC(=O)c1ccc(N=Nc2ccc(N(CCC#N)CCC#N)cc2C)cc1 | > 100 µM | > 100 µM | > 100 µM | > 100 µM | > 100 µM | > 100 µM | > 100 µM | > 100 µM | > 100 µM | – | – | – | – | – | – | – | – | – | – | –
COC(=O)C1=C(C(=O)OC)C2(c3ccccc3)OC1(c1ccccc1)c1cc3ccccc3cc12 | 5.32 µM | 3.33 µM | 27.1 µM | 2.71 µM | 3.33 µM | 3.69 µM | 24.4 µM | 4.18 µM | – | – | – | – | – | – | – | – | – | – | – | –
Cc1ccc(NC(=O)c2cc(S(=O)(=O)Nc3nnc(-c4ccccc4)c(-c4ccccc4)n3)c(SCc3ccccc3)cc2Cl)cc1 | 34.3 µM | 37.6 µM | > 100 µM | 28.6 µM | > 100 µM | 37.6 µM | 41.6 µM | 43.9 µM | 41.7 µM | 18.4 µM | 18 µM | 36.1 µM | 34.8 µM | 19.2 µM | 22 µM | 18.2 µM | – | – | 20.7 µM | 13.3 µM
COc1ccc2nc(NC(=O)C(=O)CC(=O)c3ccc([N+](=O)[O-])cc3)sc2c1 | > 100 µM | > 100 µM | > 100 µM | – | > 100 µM | > 100 µM | > 100 µM | > 100 µM | > 100 µM | – | – | – | – | – | – | – | – | – | – | –
OC(c1ccccc1Br)(c1ccccc1Br)C(F)(F)F | > 100 µM | > 100 µM | 52.8 µM | 40.2 µM | > 100 µM | – | > 100 µM | 38.6 µM | 72.9 µM | – | – | – | – | – | – | – | – | – | – | –
CCOC(=O)C1(C)CCC(C(C(=O)O)C(=O)O)CC1=O (stereo not drawn) | > 100 µM | > 100 µM | > 100 µM | > 100 µM | > 100 µM | > 100 µM | > 100 µM | > 100 µM | > 100 µM | – | – | – | – | – | – | – | – | – | – | –
N#CC1CC(c2ccccc2)Nc2cc(Cl)ccc2N1 (stereo not drawn) | > 100 µM | > 100 µM | > 100 µM | > 100 µM | > 100 µM | > 100 µM | > 100 µM | > 100 µM | > 100 µM | – | – | – | – | – | – | – | – | – | – | –
CC(=O)OCC(=O)[C@@]1(O)CC[C@H]2[C@@H]3C[C@H](C)C4=CC(=O)C=C[C@]4(C)[C@@]3(F)[C@@H](O)C[C@@]21C | > 100 µM | > 100 µM | > 100 µM | > 100 µM | > 100 µM | > 100 µM | > 100 µM | – | > 100 µM | – | – | – | – | – | – | – | – | – | – | –
CCc1cccc(CC)c1NC(=O)/C(Cl)=C(/Cl)C(=O)O | > 89.6 µM | > 68.5 µM | > 100 µM | > 100 µM | 35.9 µM | > 100 µM | > 100 µM | 45.9 µM | 48.3 µM | – | – | – | – | – | – | – | – | – | – | –
COc1cc(/C=C/c2csnn2)cc(OC)c1OC | > 100 µM | > 100 µM | > 100 µM | > 100 µM | > 100 µM | > 100 µM | > 100 µM | > 100 µM | > 100 µM | – | – | – | – | – | – | – | – | – | – | –
N#Cc1ccc(Sc2nc3ccccc3[nH]2)cc1 | > 100 µM | > 100 µM | > 100 µM | > 100 µM | – | > 100 µM | > 100 µM | > 100 µM | > 100 µM | – | – | – | – | – | – | – | – | – | – | –
Nc1nc(=S)c2c(ncn2CCO)[nH]1 | > 100 µM | > 100 µM | > 100 µM | > 100 µM | > 100 µM | > 100 µM | > 100 µM | > 100 µM | > 100 µM | – | – | – | – | – | – | – | – | – | – | –
